Test [1] relates to Progesterone receptor (Mesocricetus auratus). The experiment in a line: Percent inhibition of [3H]- progesterone binding to Syrian golden hamster uterine cytosol progesterone receptor, at 10e-8 M compound concentration. Conditions: at 0.01 µM.
Test [2] deals with T1, Progesterone receptor (Oryctolagus cuniculus) (UniProt P06186).
T1 sequence (whole entry): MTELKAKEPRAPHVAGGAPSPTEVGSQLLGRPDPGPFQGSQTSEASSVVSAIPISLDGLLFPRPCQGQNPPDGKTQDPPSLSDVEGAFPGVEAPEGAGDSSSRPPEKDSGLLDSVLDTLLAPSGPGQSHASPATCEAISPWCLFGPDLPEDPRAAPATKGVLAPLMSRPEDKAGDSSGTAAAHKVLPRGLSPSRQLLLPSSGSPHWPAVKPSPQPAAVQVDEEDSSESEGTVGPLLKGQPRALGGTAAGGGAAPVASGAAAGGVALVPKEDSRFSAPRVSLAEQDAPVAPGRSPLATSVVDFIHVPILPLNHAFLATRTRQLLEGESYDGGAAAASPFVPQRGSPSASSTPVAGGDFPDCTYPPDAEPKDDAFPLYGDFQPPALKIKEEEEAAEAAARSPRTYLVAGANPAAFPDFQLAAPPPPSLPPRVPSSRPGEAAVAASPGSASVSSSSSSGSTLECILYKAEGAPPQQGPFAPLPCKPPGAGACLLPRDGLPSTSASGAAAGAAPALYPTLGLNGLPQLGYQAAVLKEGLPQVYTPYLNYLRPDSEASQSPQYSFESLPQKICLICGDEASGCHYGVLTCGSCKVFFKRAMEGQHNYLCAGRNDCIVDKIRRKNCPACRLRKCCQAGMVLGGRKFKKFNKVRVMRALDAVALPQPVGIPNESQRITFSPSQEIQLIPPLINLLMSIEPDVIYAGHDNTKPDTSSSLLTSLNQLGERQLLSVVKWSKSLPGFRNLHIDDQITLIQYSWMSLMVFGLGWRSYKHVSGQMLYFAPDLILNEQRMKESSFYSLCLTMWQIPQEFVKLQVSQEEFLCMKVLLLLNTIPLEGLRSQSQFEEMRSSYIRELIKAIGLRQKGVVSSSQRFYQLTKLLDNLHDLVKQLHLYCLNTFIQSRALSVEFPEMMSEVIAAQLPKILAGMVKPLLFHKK
The test can be described thus: Percent inhibition of [3H]- progesterone binding to rabbit uterine progesterone receptor, at 10e-9 M compound concentration. Conditions: at 0.001 µM.

The target of test [3] is T1, Progesterone receptor (Oryctolagus cuniculus). The experiment in a line: Percent inhibition of [3H]- progesterone binding to rabbit uterine progesterone receptor, at 10e-5 M compound concentration. To be noted: at 10 µM.
In test [4] the test system is Progesterone receptor (Mesocricetus auratus). The test can be described thus: Percent inhibition of [3H]- progesterone binding to Syrian golden hamster uterine cytosol progesterone receptor, at 10e-9 M compound concentration. To be noted: at 0.001 µM.
For test [5], the target named is T1, Progesterone receptor (Oryctolagus cuniculus). The experiment in a line: Percent inhibition of [3H]- progesterone binding to rabbit uterine progesterone receptor, at 10e-8 M compound concentration. Conditions: at 0.01 µM.
Test [6] shares this target. The test can be described thus: Percent inhibition of [3H]- progesterone binding to rabbit uterine progesterone receptor, at 10e-6 M compound concentration. To be noted: at 1 µM.
The test system of test [7] is Progesterone receptor (Mesocricetus auratus). The test can be described thus: Percent inhibition of [3H]- progesterone binding to Syrian golden hamster uterine cytosol progesterone receptor, at 10e-6 M compound concentration. To be noted: at 1 µM.
Test [8] deals with Cricetinae gen. sp. The experiment in a line: Activity against pregnancy-interceptive activity in Syrian golden hamsters, when administered, at a dose of 6.96 mmol/kg. The format is functional.
Test [9] relates to Progesterone receptor (Mesocricetus auratus). The experiment in a line: Percent inhibition of [3H]- progesterone binding to Syrian golden hamster uterine cytosol progesterone receptor, at 10e-7 M compound concentration. Conditions: at 0.1 µM.
Test [10] has the same test system. The test can be described thus: Percent inhibition of [3H]- progesterone binding to Syrian golden hamster uterine cytosol progesterone receptor, at 10e-5 M compound concentration. To be noted: at 10 µM.
Test [11] deals with T1, Progesterone receptor (Oryctolagus cuniculus). The experiment in a line: Percent inhibition of [3H]- progesterone binding to rabbit uterine progesterone receptor at 10e-7 M.
In test [12] the test system is Cricetinae gen. sp. The test can be described thus: Activity against pregnancy-interceptive activity in Syrian golden hamsters, when administered, at a dose of 7.83 mmol/kg. The format is functional.
Test [13] addresses T1, Progesterone receptor (Oryctolagus cuniculus). The experiment in a line: Percent inhibition of [3H]- progesterone binding to rabbit uterine progesterone receptor, at 10e-7 M compound concentration. Conditions: at 0.1 µM.
Test [14] deals with Cricetinae gen. sp. The experiment in a line: Activity against pregnancy-interceptive activity in Syrian golden hamsters, when administered, at a dose of 7.97 mmol/kg. The format is functional, Cricetulus griseus.
In test [15] the test system is Cricetinae gen. sp. The test can be described thus: Activity against pregnancy-interceptive activity in Syrian golden hamsters, when administered, at a dose of 8.40 mmol/kg. The format is functional, Cricetulus griseus.
Test [16] deals with Cricetinae gen. sp. The experiment in a line: Activity against pregnancy-interceptive activity in Syrian golden hamsters, when administered, at a dose of 15.11 mmol/kg. The format is functional.
The test system of test [17] is Cricetinae gen. sp. The experiment in a line: Activity against pregnancy-interceptive activity in Syrian golden hamsters, when administered, at a dose of 26.88 mmol/kg. The format is functional.
Test [18] concerns Cricetinae gen. sp. The test can be described thus: Activity against pregnancy-interceptive activity in Syrian golden hamsters, when administered, at a dose of 19.43 mmol/kg. The format is functional.
Test [19] has as its system Cricetinae gen. sp. The experiment in a line: Activity against pregnancy-interceptive activity in Syrian golden hamsters, when administered, at a dose of 9.54 mmol/kg. The format is functional.
In test [20] the test system is Cricetinae gen. sp. The experiment in a line: Activity against pregnancy-interceptive activity in Syrian golden hamsters, when administered, at a dose of 9.31 mmol/kg. The format is functional.
Test [21] has as its system Cricetinae gen. sp. The test can be described thus: Activity against pregnancy-interceptive activity in Syrian golden hamsters, when administered, at a dose of 13.85 mmol/kg. The format is functional.

Regarding `COC(=O)C1=C(C)N=C(C)/C(=C(\O)OC)C1c1ccc(C(=O)OC)cc1` (stereo not given), the inhibition was 10% in test [1]; 0% in test [2]; 25% in test [3]; 10% in [4]; 0% in test [5]; 15% in test [6]. For the same compound, the inhibition in test [7] amounted to 32%; in [9], 27%; in test [10], 40%; in [11], 20%. The Activity in test [8] was 0.72.
For the compound `COC(=O)C1=C(C)N=C(C)/C(=C(\O)OC)C1c1cc(C(=O)c2ccc(C)cc2)c(OC)cc1OC` (stereo not given), the inhibition in test [1] was 12%; in test [2] it was 10%; in [3], 23%; in test [4], 8%; in test [5] it was 11%; in test [6] it was 18%. In addition, the inhibition in [7] was found to be 15%; in [9], 15%; in test [10] it was 18%; in [11], 15%. Further, the Activity in [12] is listed as 6.
On to `COC(=O)C1=C(C)N=C(C)/C(=C(/O)OC)C1c1ccc2nc(-c3ccc(OC)c(OC)c3)n(Cc3ccc(OC)c(OC)c3)c2c1` (stereo not given), for which the inhibition in test [1] is 5%; in [2], 0%; in test [3], 8%; in test [4], 2%; in test [13] it was 8%; in test [5] it was 0%. For the same compound, the inhibition in [6] turned out to be 10%; in test [7], 10%; in [9], 5%; in [10] it was 16%. Further, the Activity in test [14] is reported as 4.
As for `COC(=O)C1=C(C)N=C(C)/C(=C(/O)OC)C1c1ccc2nc(-c3ccc4c(c3)OCO4)n(Cc3ccc4c(c3)OCO4)c2c1` (stereo not given), the inhibition is 5% in test [1]; 0% in test [2]; 18% in test [3]; 0% in test [4]; 5% in test [13]; 0% in test [5]. Also, the inhibition in test [6] is 12%; in [7] it was 15%; in [9] it was 8%; in test [10], 16%. In addition, the Activity in test [15] is 4.4.
With `COC(=O)C1=C(C)N=C(C)/C(=C(/O)OC)C1c1ccc(N)c(N)c1` (stereo not given), the inhibition in test [1] was found to be 0%; in test [2] it was 13%; in test [3], 21%; in [4] it was 0%; in test [13], 16%; in test [5], 10%. For the same compound, the inhibition is 15% in test [6], 14% in test [7], 9% in test [9] and 18% in test [10]. Besides, the Activity in test [16] worked out at 2.3.
In [17], `COC(=O)Nc1nc2cc(C3C(C(=O)OC)=C(C)N=C(C)/C3=C(/O)OC)ccc2n1Cc1ccccc1` (stereo not given) registered an Activity of 3.58 mean.
`COC(=O)C1=C(C)N=C(C)/C(=C(/O)OC)C1c1cc2ccccc2nc1Cl` (stereo not given): the inhibition in [1] stood at 10%; in [2], 8%; in [3], 17%; in [4] it was 6%; in [13] it was 10%; in test [5], 11%. Also, the inhibition in [6] stood at 16%; in test [7] it was 14%; in test [9], 11%; in test [10] it was 14%. This compound gave an Activity in [18] of 3.
Consider `COC(=O)C1=C(C)N=C(C)/C(=C(/O)OC)C1c1ccc(C2C(C(=O)OC)=C(C)N=C(C)/C2=C(/O)OC)cc1` (stereo not given), for which the inhibition in [1] came out at 13%; in [2], 4%; in test [3], 36%; in [4], 9%; in [13], 16%; in test [5], 10%. Also, the inhibition amounted to 26% in test [6], 31% in [7], 15% in test [9] and 34% in test [10]. The compound further gave an Activity in test [19] of 6.2.
Take `COC(=O)C1=C(C)N=C(C)/C(=C(\O)OC)C1c1cc2cc(-c3c(C)oc(C)c3C(=O)OC)ccc2nc1Cl` (stereo not given): the inhibition in [1] was 10%; in test [2], 0%; in [3] it was 8%; in test [4] it was 5%; in test [13], 5%; in test [5] it was 0%. In addition, the inhibition in test [6] was 10%; in test [7], 20%; in test [9], 9%; in [10], 17%. This compound also came in with an Activity in test [20] of 1.8.
As for `COC(=O)C1=C(C)N=C(C)/C(=C(\O)OC)C1c1ccc(N)c([N+](=O)[O-])c1` (stereo not given), the inhibition in [1] turned out to be 0%; in [2], 0%; in [3], 5%; in test [4], 0%; in test [13], 0%; in [5], 0%. Moreover, the inhibition in [6] is 1%; in test [7] it was 5%; in [9] it was 5%; in test [10], 10%. Besides, the Activity in [21] is on record as 7.

What is called inhibition is how much of the control response was suppressed.

(Values after ChEMBL document CHEMBL1124351, “Syntheses and bioevaluation of substituted dihydropyridines for pregnancy-interceptive activity in hamsters” (1989).)
